Experimental data reported in ChEMBL document CHEMBL3045577, “Synthesis and anti-HIV activity evaluation of novel N-arylidene-2-[1-(naphthalen-1-yl)-1H-tetrazol-5-ylthio]acetohydrazides” (Med Chem Res, 2010).

Experiments:
[1] = Selectivity index, ratio of CC50 for human MT4 cells to EC50 for HIV-2 ROD infected in MT4 cells; format: toxicity, cell-based; conditions: read-out: Ratio CC50/EC50
[2] = Selectivity index, ratio of CC50 for human MT4 cells to EC50 for HIV-1 3B infected in MT4 cells; format: toxicity, cell-based; conditions: read-out: Ratio CC50/EC50
[3] = Cytotoxicity against Homo sapiens (human) MT4 cells by MTT assay; format: cell-based
[4] = system: Human immunodeficiency virus 2; assay: Antiviral activity against Human immunodeficiency virus type 2 (ISOLATE ROD) infected human MT4 cells assessed as inhibition of virus-induced cytopathicity after 4 days by MTT assay; format: functional, organism-based; conditions: Human immunodeficiency virus 2, ISOLATE ROD, MT4, 96 h
[5] = system: Human immunodeficiency virus 1; assay: Antiviral activity against Human immunodeficiency virus 1 IIIB infected human MT4 cells assessed as inhibition of virus-induced cytopathicity after 4 days by MTT assay; format: functional, organism-based; conditions: MT4, 96 h

Row | Compound | selectivity ratio [1] | selectivity ratio [2] | CC50 [3] [µM] | EC50 [4] [µM] | EC50 [5] [µM]
1 | COc1ccc(/C=N/NC(=O)CSc2nnnn2-c2cccc3ccccc23)c(OC)c1 | < 1 | < 1 | 28.3 | > 28.3 | > 28.3
2 | O=C(CSc1nnnn1-c1cccc2ccccc12)N/N=C/c1cccs1 | 1 | 1 | > 317 | > 317 | > 317
3 | COc1cccc(/C=N/NC(=O)CSc2nnnn2-c2cccc3ccccc23)c1OC | < 1 | < 1 | 192 | > 192 | > 192
4 | O=C(CSc1nnnn1-c1cccc2ccccc12)N/N=C/c1ccc(Cl)cc1 | 1 | 1 | > 296 | > 296 | > 296
5 | COc1ccc(/C=N/NC(=O)CSc2nnnn2-c2cccc3ccccc23)cc1OC | < 1 | ≤ 5 | 191 | > 191 | ≥ 36.3
6 | COc1ccc(O)c(/C=N/NC(=O)CSc2nnnn2-c2cccc3ccccc23)c1 | < 1 | < 1 | 4.51 | > 4.51 | > 4.51
7 | O=C1Nc2ccc(Cl)cc2[C@@](C#CC2CC2)(C(F)(F)F)O1 [EFAVIRENZ] |  | > 1430 | > 6.34 |  | 
8 | O=C(CSc1nnnn1-c1cccc2ccccc12)N/N=C/c1ccccc1F | 1 | 1 | ≥ 118 | > 118 | > 118
9 | O=C(CSc1nnnn1-c1cccc2ccccc12)N/N=C/c1cccc(Cl)c1 | < 1 | < 1 | 240 | > 240 | > 240
10 | COc1cc(/C=N/NC(=O)CSc2nnnn2-c2cccc3ccccc23)ccc1O | 1 | 1 | > 288 | > 288 | > 288
11 | O=C(CSc1nnnn1-c1cccc2ccccc12)N/N=C/c1ccccc1O | < 1 | < 1 | 4.85 | > 4.85 | > 4.85
12 | Cc1cn([C@H]2C[C@H](N=[N+]=[N-])[C@@H](CO)O2)c(=O)[nH]c1=O [ZIDOVUDINE] |  | > 6190 | > 93.5 |  | 
13 | O=C(CSc1nnnn1-c1cccc2ccccc12)N/N=C/c1ccc([N+](=O)[O-])cc1 | 1 | 1 | ≥ 261 | > 261 | > 261
14 | Cc1cccc(/C=N/NC(=O)CSc2nnnn2-c2cccc3ccccc23)c1 | < 1 | < 1 | 269 | > 269 | > 269
15 | Cc1ccnc2c1NC(=O)c1cccnc1N2C1CC1 [NEVIRAPINE] |  |  | > 15 |  | 
16 | O=C(CSc1nnnn1-c1cccc2ccccc12)N/N=C/c1cccc(O)c1 | < 1 | 6 | 169 | > 169 | 29.6
17 | O=C(CSc1nnnn1-c1cccc2ccccc12)N/N=C/c1ccc(F)cc1 | 1 | 1 | > 308 | > 308 | > 308
18 | COc1ccc(/C=N/NC(=O)CSc2nnnn2-c2cccc3ccccc23)cc1 | 1 | 1 | > 299 | > 299 | > 299
19 | O=C(CSc1nnnn1-c1cccc2ccccc12)N/N=C/c1ccccc1Cl | < 1 | < 1 | 69.7 | > 69.7 | > 69.7
20 | O=C(CSc1nnnn1-c1cccc2ccccc12)N/N=C/c1ccc(O)cc1 | 1 | > 9 | > 309 | > 309 | 31.6
21 | CC(C)Nc1cccnc1N1CCN(C(=O)c2cc3cc(NS(C)(=O)=O)ccc3[nH]2)CC1 [DELAVIRDINE] |  | > 12 | > 3.83 |  | 
22 | CN(C)c1ccc(/C=N/NC(=O)CSc2nnnn2-c2cccc3ccccc23)cc1 | 1 | 1 | > 290 | > 290 | > 290
23 | O=C(CSc1nnnn1-c1cccc2ccccc12)N/N=C/c1ccccc1 | < 1 | ≤ 10 | 216 | > 229 | ≥ 21.4
24 | O=C(CSc1nnnn1-c1cccc2ccccc12)N/N=C/c1ccco1 | 1 | 1 | > 330 | > 330 | > 330
